# Reference: paper PMC7369900 (International Journal of Molecular Sciences, 2020)
# Like-named read-outs stand apart in the source and are kept apart here.
# How the values were obtained:
# [1] = molecular target: T1, yeast DNA topoisomerase II (Saccharomyces cerevisiae, UniProt P06786); test: biochemical; format: biochemical; conditions: for Topoisomerase II inhibition at the highest used concentration: 500 µM
# T1 construct: purchased Inspiralis (Norwich, UK)
# S. aureus ATCC 29213 = test: microbe, parasite or virus in culture; format: cell-based, Staphylococcus aureus; conditions: S. aureus ATCC 29213, MHB
# Protocol: (§1) The antibacterial activity of TP10-NH2-based conjugates, as well as its constituents, was evaluated by microdilution assay in Mueller Hinton broth, MHB (Table 1). […] There are, however, some exceptions. […] Its activity against two other tested bacteria was somewhat lower though.
# (§2) The antibacterial activity (bacteriostatic: MIC and bactericidal: MBC) of the tested compounds was determined in MHB (Mueller Hinton Broth, Sigma Aldrich, St. Louis, MO, USA) using a serial two-fold dilution method in 96-well microtiter plates according to CLSI recommendations, described in M07-A10 document. The exact conditions have been described previously. All experiments were performed in three replicates. The MIC90 and MIC50 values were defined as the concentrations of compounds tested that caused a 90% or 50% reduction of growth, respectively, comparing to the drug-free control.
# human red blood cells = test: Hemolysis assay
# E. coli ATCC 25922 = test: microbe, parasite or virus in culture; format: cell-based, Escherichia coli; conditions: E. coli ATCC 25922, MHB
# Protocol: as §1, §2
# E. coli ATCC 25,922 = test: Resistance induction by serial passage on MHA plates; format: cell-based, Escherichia coli; conditions: passaged with CIP 0.012 μM or 3 0.012 μM
# S. aureus ATCC 29,213 = test: as above; format: cell-based, Staphylococcus aureus; conditions: passaged with CIP 0.1875 μM or 3 0.375 μM
# [2] = tested on: Gram-positive and Gram-negative bacteria; format: cell-based; conditions: MHB, four bacteria
# Protocol: as §1, §2
# LLC-PK1 = test: cells; format: cell-based, pig; conditions: LLC-PK1, 72 h, MTT
# Protocol: (§3) Among the conjugates, LVXC-S-S-CTP10-NH2 (5) was the least cytotoxic. […] In the case of HEK 293 and LLC-PK1 cells, the IC50 values of 5 were nearly four times higher. […] Additionally, we noted that the cancer cells Hep G2 were less sensitive to the action of the given compounds than the non-cancer cells (HEK 293 and LLC-PK1).
# (§4) Cytotoxicity was assessed against three mammalian cell lines: LLC-PK1, Hep G2, and HEK 293. Multiwell (96–well) plates were seeded at 7000 cells/well in Medium 199 supplemented with 7.5% FBS, MEM Eagle’s medium supplemented with 10% FBS, or DMEM medium supplemented with 10% FBS, respectively. All media were supplemented with L-glutamine and antibiotics (penicillin/streptomycin). Cells were allowed to attach overnight. Drugs were dissolved in cell culture medium and added to wells in 100-µL aliquots of 2× concentrated solutions, in triplicates. To control wells, 100 µL of the medium were added. Cells were incubated with the studied compounds for 72 h at 37 °C and 95%/5% or 90%/10% (HEK 293 cells) CO2 atmosphere. Then, 20-µL aliquots of MTT solution in PBS (4 mg/mL) were added to all wells and plates were incubated further for 3 h in 37 °C. Formazan crystals formed were dissolved in 100 µL of DMSO and the absorbance of the solutions was measured using a multiwell plate reader (Spark, Tecan, Männedorf, Switzerland) at λ = 540 nm. Cytotoxicity was determined compared to the drug-free control. All experiments were performed in triplicates.
# HEK 293 [3] = test: ROS generation (CM-H2DCFDA, flow cytometry); format: cell-based, human
# Protocol: (§5) In the positive controls treated with H2O2, the fraction of ROS-positive cells exceeded 75%. […] Strikingly, in HL-60, a biologically significant effect was observed almost immediately (after 15 min of incubation). The same was noted after 1 h in the HEK 293 cell line. […] Similarly, conjugates 4 and 5 generated ROS at the low level (less than 15% for HL-60 and less than 20% for HEK 293) (manuscript in preparation). […] For HL-60, the critical level of ROS was noted after 15 min of incubation.
# (§6) ROS generation activity was evaluated as described previously. Briefly, HEK 293 cells were seeded on 35-mm Petri dishes in the amount of 15,000 cells per plate for 24 h in DMEM medium. […] Positive controls contained 250 µM H2O2, while negative controls were without any additions. After 0.5, 2.5, 5.5, and 24 h of incubation at 37 °C, the CM-H2DCFDA molecular probe (Thermo Fischer Scientific, Waltham, USA) was added to the plates and incubation was continued for another 0.5 h. The HEK 293 cells were detached with 0.05% trypsin solution in PBS and HBSS (Hank’s Balanced Salt Solution) and suspended in fresh DMEM medium. All samples were additionally stained with 7-AAD (7-aminoactinomycin D, 0.8 µg/mL) and immediately analysed with a Guava easyCyte flow cytometer (Merc, Burlington, USA). The determinations were performed in triplicates.
# HL-60 = test: ROS generation (CM-H2DCFDA, flow cytometry); format: cell-based, human
# Protocol: as §5, §6
# Hep G2 = test: cells; format: cell-based, human; conditions: Hep G2, 72 h, MTT
# Protocol: as §3, §4
# HEK 293 [4] = test: cells; format: cell-based, human; conditions: HEK 293, 72 h, MTT
# Protocol: as §3, §4
# P. aeruginosa ATCC 27853 = test: microbe, parasite or virus in culture; format: cell-based, Pseudomonas aeruginosa; conditions: P. aeruginosa ATCC 27853, MHB
# Protocol: as §1, §2
# [5] = tested on: S. epidermidis ATCC 12228; test: microbe, parasite or virus in culture; format: cell-based, Staphylococcus epidermidis; conditions: S. epidermidis ATCC 12228, MHB
# Protocol: as §1, §2
# C. krusei DSM 6128 [6] = tested on: C. krusei DSM 6128
# HL-60 and HEK 293 cells = test: ROS generation, statements not split by cell line; format: cell-based, human; conditions: cell line not specified
# Protocol: as §5, §6
# C. glabrata DSM 11226 [7] = tested on: C. glabrata DSM 11226
# [8] = Stability in PBS and growth media; format: physicochemical; conditions: phosphate-buffered saline and growth media used for antibacterial and antifungal tests
# Text: CIP-S-S-TP10-NH2 was stable in phosphate-buffered saline (PBS) and growth media used for the determination of antibacterial and antifungal in vitro activity.
# [9] = tested on: S. aureus ATCC 25,923 cells; test: Stability inside bacterial cells (LC-MS of cell lysate)
# [10] = tested on: C. albicans Δopt1Δopt5Δptr2Δptr22
# [11] = tested on: yeasts of the Candida genus; test: microbe, parasite or virus in culture; conditions: read-out: MIC against Candida strains
# C. krusei DSM 6128 [12] = test: microbe, parasite or virus in culture; conditions: Pichia kudriavzevii, DSM6128
# C. glabrata DSM 11226 [13] = test: microbe, parasite or virus in culture; conditions: Nakaseomyces glabratus, DSM11226
# [14] = Staphylococcus aureus, ATCC29213
# [15] = Pseudomonas aeruginosa, ATCC27853
# [16] = Staphylococcus epidermidis, ATCC12228
# T1 sequence (P06786 whole entry): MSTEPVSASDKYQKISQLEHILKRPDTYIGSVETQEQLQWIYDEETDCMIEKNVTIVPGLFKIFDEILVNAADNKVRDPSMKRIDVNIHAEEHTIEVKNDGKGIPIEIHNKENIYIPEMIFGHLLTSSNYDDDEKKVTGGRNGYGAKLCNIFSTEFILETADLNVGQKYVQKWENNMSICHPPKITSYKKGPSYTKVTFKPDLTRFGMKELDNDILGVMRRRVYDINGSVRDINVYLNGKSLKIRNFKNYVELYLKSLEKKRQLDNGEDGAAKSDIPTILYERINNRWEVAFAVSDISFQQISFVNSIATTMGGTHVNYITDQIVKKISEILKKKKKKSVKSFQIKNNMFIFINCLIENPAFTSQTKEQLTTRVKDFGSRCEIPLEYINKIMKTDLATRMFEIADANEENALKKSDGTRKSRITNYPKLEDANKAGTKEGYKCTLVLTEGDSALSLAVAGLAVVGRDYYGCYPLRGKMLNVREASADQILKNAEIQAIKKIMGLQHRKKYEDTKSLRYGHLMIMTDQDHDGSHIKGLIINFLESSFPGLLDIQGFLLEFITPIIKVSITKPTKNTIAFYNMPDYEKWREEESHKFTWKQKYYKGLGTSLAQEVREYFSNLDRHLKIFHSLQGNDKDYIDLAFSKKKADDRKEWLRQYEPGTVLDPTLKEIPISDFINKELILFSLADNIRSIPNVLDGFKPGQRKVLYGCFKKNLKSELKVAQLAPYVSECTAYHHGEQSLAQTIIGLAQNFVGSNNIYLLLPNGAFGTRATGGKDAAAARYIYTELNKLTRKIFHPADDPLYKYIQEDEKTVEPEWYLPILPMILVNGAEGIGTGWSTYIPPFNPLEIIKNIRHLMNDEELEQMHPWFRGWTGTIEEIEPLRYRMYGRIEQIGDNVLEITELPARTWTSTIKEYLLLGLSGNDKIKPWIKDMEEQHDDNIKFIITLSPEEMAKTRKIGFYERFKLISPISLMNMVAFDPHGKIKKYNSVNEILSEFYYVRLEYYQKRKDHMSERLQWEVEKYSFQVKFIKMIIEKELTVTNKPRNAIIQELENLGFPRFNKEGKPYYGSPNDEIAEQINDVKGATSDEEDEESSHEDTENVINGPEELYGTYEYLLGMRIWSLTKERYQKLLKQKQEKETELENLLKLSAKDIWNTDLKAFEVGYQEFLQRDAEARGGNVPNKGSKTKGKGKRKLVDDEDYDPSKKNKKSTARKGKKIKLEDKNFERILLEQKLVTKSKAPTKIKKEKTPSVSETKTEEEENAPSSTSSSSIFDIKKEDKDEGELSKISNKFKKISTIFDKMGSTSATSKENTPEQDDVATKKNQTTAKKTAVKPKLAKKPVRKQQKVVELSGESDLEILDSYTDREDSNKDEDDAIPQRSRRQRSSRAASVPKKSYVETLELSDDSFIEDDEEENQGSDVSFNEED
structure (smiles),measurement,setting,value
"O=C(O)c1cn(C2CC2)c2cc(N3CCNCC3)c(F)cc2c1=O [CIP, ciprofloxacin]",Topoisomerase II inhibition at the highest used concentration,[1],residual activity
same,MIC50,S. aureus ATCC 29213; [14],0.2 µM
same,MIC90,S. aureus ATCC 29213; [14],0.2 µM
same,Hemolytic effect,human red blood cells,do not cause a hemolytic effect
same,MIC50,"E. coli ATCC 25922; Escherichia coli, ATCC25922",< 0.0125 µM
same,MIC90,"E. coli ATCC 25922; Escherichia coli, ATCC25922",0.0125 µM
same,Increase of MIC after the 5th passage,"E. coli ATCC 25,922",8 fold
same,Increase of MIC after the 10th passage,"E. coli ATCC 25,922",8 fold
same,Increase of MIC compared to the control after passaging,"S. aureus ATCC 29,213",2 fold
same,MIC50 range over tested bacteria,[2],0.0125 to 0.8 µM
same,"MIC90, upper end of range over tested bacteria",[2],≤ 1.6 µM
same,IC50,LLC-PK1; Sus scrofa,> 200 µM
same,Incubation time at which significant ROS effect was noted,"HEK 293 [3]; human, 500 µM",1 h
same,Incubation time at which significant/critical ROS level was noted,"HL-60; human, 100 µM",15 min
same,Dot plot quadrant LB,"HL-60; human, 3 h, 100 µM",96.2 ± 2.6
same,Dot plot quadrant LT,"HL-60; human, 3 h, 100 µM",1.1 ± 1.5
same,Dot plot quadrant RB,"HL-60; human, 3 h, 100 µM",2.6 ± 1.6
same,Dot plot quadrant RT,"HL-60; human, 3 h, 100 µM",0.7 ± 0.7
same,Dot plot quadrant LB,"HL-60; human, 6 h, 100 µM",97.5 ± 1.2
same,Dot plot quadrant LT,"HL-60; human, 6 h, 100 µM",0.4 ± 0.3
same,Dot plot quadrant RB,"HL-60; human, 6 h, 100 µM",2.1 ± 1.3
same,Dot plot quadrant RT,"HL-60; human, 6 h, 100 µM",0.0 ± 0.0
same,Dot plot quadrant LB,"HL-60; human, 24 h, 100 µM",99.7 ± 0.2
same,Dot plot quadrant LT,"HL-60; human, 24 h, 100 µM",0.1 ± 0.1
same,Dot plot quadrant RB,"HL-60; human, 24 h, 100 µM",0.2 ± 0.1
same,Dot plot quadrant RT,"HL-60; human, 24 h, 100 µM",0.0 ± 0.0
same,IC50,"Hep G2; Homo sapiens, HepG2",> 200 µM
same,IC50,"HEK 293 [4]; Homo sapiens, HEK293",> 200 µM
same,MIC50,P. aeruginosa ATCC 27853; [15],0.4 µM
same,MIC90,P. aeruginosa ATCC 27853; [15],0.4 µM
same,MIC50,[5]; [16],0.8 µM
same,MIC90,[5]; [16],1.6 µM
"CC[C@H](C)[C@H](NC(=O)[C@H](CCCCN)NC(=O)[C@H](CCCCN)NC(=O)[C@H](C)NC(=O)[C@H](CC(C)C)NC(=O)[C@H](C)NC(=O)[C@H](C)NC(=O)[C@H](CC(C)C)NC(=O)[C@H](C)NC(=O)[C@H](CCCCN)NC(=O)[C@H](CC(C)C)NC(=O)[C@H](CC(N)=O)NC(=O)[C@@H](NC(=O)[C@H](CCCCN)NC(=O)CNC(=O)[C@H](CC(C)C)NC(=O)[C@H](CC(C)C)NC(=O)[C@H](Cc1ccc(O)cc1)NC(=O)CNC(=O)[C@H](C)NC(=O)CCSSCCC(=O)N1CCN(c2cc3c(cc2F)c(=O)c(C(=O)O)cn3C2CC2)CC1)[C@@H](C)CC)C(=O)N[C@@H](CC(C)C)C(N)=O [Compound 3, CIP-S-S-TP10-NH2]",IC50,"[1]; class, read-out: Topoisomerase II Inhibition",< 50 µM
same,MIC50,C. krusei DSM 6128 [6],25 µM
same,MIC50,S. aureus ATCC 29213,0.8 µM
same,MIC90,S. aureus ATCC 29213,0.8 µM
same,ROS generation,HL-60 and HEK 293 cells,no ROS generation was observed
same,MIC50,E. coli ATCC 25922,0.0125 µM
same,MIC90,E. coli ATCC 25922,0.025 µM
same,MIC50,C. albicans Gu4,6.25 µM
same,IC50,LLC-PK1,16.8 ± 2.62 µM
same,ROS HEK 293,"HEK 293 [3]; positive cells in 24 h, class",++ (++ <10% positive cells in 24 h)
same,ROS HL-60,"HL-60; positive cells in 24 h, class",+ (+ <15% positive cells in 24 h)
same,MIC50,C. glabrata DSM 11226 [7],>200 µM
same,Stability in PBS and growth media,[8],stable
same,IC50,Hep G2,19 ± 2.08 µM
same,IC50,HEK 293 [4],13.1 ± 1.22 µM
same,Stability inside bacterial cells,[9],reduced inside the cell
same,MIC50,P. aeruginosa ATCC 27853,0.8 µM
same,MIC90,P. aeruginosa ATCC 27853,1.6 µM
same,MIC50,[10],12.5 µM
same,MIC90,[10],25 µM
same,MIC50,C. albicans SC 5314,6.25 µM
same,MIC90,C. albicans SC 5314,25 µM
same,MIC50,[5],0.8 µM
same,MIC90,[5],0.8 µM
"C[C@H]1COc2c(N3CCN(C)CC3)c(F)cc3c(=O)c(C(=O)O)cn1c23 [LVX, levofloxacin, reference compound]",Topoisomerase II inhibition at the highest used concentration,[1],residual activity
same,MIC50,S. aureus ATCC 29213; [14],0.4 µM
same,MIC90,S. aureus ATCC 29213; [14],0.4 µM
same,Hemolytic effect,human red blood cells,do not cause a hemolytic effect
same,MIC50,"E. coli ATCC 25922; Escherichia coli, ATCC25922",0.025 µM
same,MIC90,"E. coli ATCC 25922; Escherichia coli, ATCC25922",0.025 µM
same,MIC,[11],> 200 µM
same,MIC50,C. krusei DSM 6128 [12],> 200 µM
same,MIC50 range over tested bacteria,[2],0.0125 to 0.8 µM
same,"MIC90, upper end of range over tested bacteria",[2],≤ 1.6 µM
same,IC50,LLC-PK1; Sus scrofa,> 200 µM
same,IC50,"Hep G2; Homo sapiens, HepG2",> 200 µM
same,IC50,"HEK 293 [4]; Homo sapiens, HEK293",> 200 µM
same,MIC50,C. glabrata DSM 11226 [13],> 200 µM
same,MIC50,P. aeruginosa ATCC 27853; [15],0.8 µM
same,MIC90,P. aeruginosa ATCC 27853; [15],0.8 µM
same,MIC50,[5]; [16],0.8 µM
same,MIC90,[5]; [16],1.6 µM
